Results on 4 compounds are retold here after patent US7612208B2, “Crystalline form of the salt of 4-(3-chloro-4-(cyclopropylaminocarbonyl)aminophenoxy)-7-methoxy-6-quinolinecarboxamide or the solvate of the salt and a process for preparing the same” (Eisai R&D Management Co., Ltd., priority 2003, dated 2009).

Series [1] in a line: Study of pharmacokinetics in beagle dogs. The class given is in vivo. The settings on record: mean ± standard error; for BA: beagle dogs n=3, oral 3 mg/kg as free form vs single intravenous administration of free form. As for the experimental part:
A crystalline form of the free from of the carboxamide (obtained in Preparation Example 1), a crystalline form of the hydrobromide of the carboxamide (obtained in Example 2) and a crystalline form of the mesylate of the carboxamide (Form A) (obtained in Example 5) were grounded in a mortar, encapsulated in a gelatin capsule, and then administered orally to beagle dogs (n=3). After administration, 10 mL of water was further administered orally. The dose was set such that it was equivalent to 3 mg/kg as a free form, and the beagle dogs were fasted from the day before administration, and fed again 8 hours after the administration.
To calculate bioavailability (BA), a test was conducted using a single intravenous administration. More specifically, a crystalline form of the free from of the carboxamide was dissolved in a solution containing 10% dimethyl sulfoxide, 50% polyethylene glycol 400 and 40% 0.1 M aqueous solution of hydrochloric acid and administered intravenously through cephalic vein of the foreleg.
The plasma concentration of the carboxamide was measured by HPLC-UV method after sampling blood from cephalic vein of the foreleg. Based on the concentration, pharmacokinetic parameters were calculated for each individual by the moment method. Further, based on the calculated parameters, the mean value and standard error thereof were calculated.

A short description of series [2]: Evaluation of hygroscopicity (storage 1 week; water content, powder X-ray diffraction). The class given is physicochemical. As for the experimental part:
The hygroscopicity and solid stability of a crystalline form of the mesylate of the carboxamide (Form A) (obtained in Example 5), a crystalline form of the mesylate of the carboxamide (Form C) (obtained in Example 7), a crystalline form of the acetic acid solvate of the mesylate of the carboxamide (Form I) (obtained in Example 10) and a crystalline form of the esylate of the carboxamide (Form β) (obtained in Example 12) were measured under the following conditions.
1. Storage Conditions for the Hygroscopicity Test (Period: 1 Week)
a-1. 25° C., relative humidity 75%
b-1. 25° C., relative humidity 93%
Analysis was carried out according to “X-Ray Powder Diffraction Method” described in Japanese Pharmacopoeia 14th Edition, General Tests (B-614 to 619) under the following measurement conditions. • Apparatus: RINT-2000 (manufacture by Rigaku Denki K. K.) • X-ray: CuKα ray • Monochrometer: curved crystal monochrometer • Goniometer: vertical goniometer • Counter: scintillation counter • Applied voltage: 40 kV • Charging current: 200 mA • Scan speed: 5°/min • Scan axis: 2θ/θ • Scan range; 2θ+5° to 40° • Divergent slit: 0.5° • Scattering slit: 0.5° • Receiving slit: 0.3 mm 5. Measurement of Water Content
Measurement was carried out according to the Water Determination as described in Japanese Pharmacopoeia 14th Edition, General Tests (B-318 to 331) using 6 to 10 mg of each crystal.

Series [3] can be described thus: Test for measuring dissolution rate (rotating disk method). In kind it is physicochemical. Conditions: 2nd fluid pH 6.8, 37° C., 50 rpm. As for the experimental part: The dissolution rates of the following crystals were measured under the conditions described below by the rotating disk method (see, J. H. Woods et al., J. Pharm. Soc., 54, 1068 (1955)): a crystalline form of the free carboxamide (obtained in Preparation Example 1), a crystalline form of the hydrochloride of the carboxamide (obtained in Example 1), a crystalline form of the hydrobromide of the carboxamide (obtained in Example 2), a crystalline form of the methanesulfonate (hereunder, referred to as “mesylate”) of the carboxamide (Form A) (obtained in Example 5), a crystalline form of the mesylate of the carboxamide (Form C) (obtained in Example 7) and a crystalline form of the ethanesulfonate (hereunder, referred to as “esylate”) (Form β) (obtained in Example 12). The dissolution rates were calculated based on a range in which linearity was maintained in the relation between concentration and time at the initial stage of dissolution.
(Rotating Disk Method Conditions)
• Solvent: “2nd fluid” (pH 6.8, 500 mL) as described in Japanese Pharmacopoeia 14th Edition, General Tests (disintegration test) • Temperature: 37° C. • Disk rotation speed: 50 rpm • Area of powder contacting with solvent on disk: 1 cm^2 • Sampling amount: approx. 1 mL (HPLC Conditions) • Column: Cadenza CD-18 (Imtakt Corporation; inner diameter 4.6 mm, Column length 100 mm, particle size 3 μm) • Column temperature: 40° C. • Flow rate: 1.0 mL/min • Mobile phase:
Concentration of solution B: 20% • Injection amount: 100 μL • Detection: ultraviolet absorbance photometer (wavelength: 252 nm) • Temperature of auto sampler: 25° C. [Results]

The nature of series [4]: Evaluation of solid stability (storage 2 weeks; total impurity by HPLC, water content, powder X-ray diffraction). In kind it is physicochemical. As for the experimental part: 2. Storage Conditions for the Solid Stability Test (Period: 2 Weeks) a-2. −20° C. (well closed) b-2. 25° C., light irradiation (1000 1×; shading with aluminum foil, well closed) c-2. 25° C., light irradiation (1000 1×; well closed) […]
e-2. 60° C. (well closed except the following case: slightly open in the case of a crystalline form of the acetic acid solvate of the mesylate (Form I))
3. Method for Measuring the Impurity Amount by HPLC
After storage, the sample solution was prepared by adding a mixed solvent of water and methanol (3:1) to each crystal at 0.1 mg/mL as final concentration.
Tests were conducted by the HPLC method for these sample solutions under the measurement conditions described below, and the eluted peak areas were measured to determine the total impurity amount by the relative area method (impurities of 0.05% or more were counted).
(Formula for Calculating Total Impurity Amount)
• Individual impurity amount (%)=(the peak area for the individual impurity)×100/{(the peak area for carboxamide)+(sum of the peak areas for impurities)} • Total impurity amount (%)=sum of individual impurity amounts (HPLC Measurement Conditions) • Column: Mightysil RP-18 GP (Kanto Kagaku; inner diameter 4.6 mm, column length 150 mm, particle size 3 μm) • Column temperature: constant temperature in vicinity of 40° C. • Flow rate: 1.0 mL/min • Mobile phase:
Solution B: CH3CN:H2O:HClO4=900:100:1 (v/v/v) • Gradient conditions […]
• Injection amount: 10 μL • Detection: ultraviolet absorbance photometer (wavelength: 252 nm) • Temperature of auto sampler: constant temperature in vicinity of 10° C. 4. Powder X-ray Diffraction […]
Measurement of Water Content

Series [5] can be described thus: Powder X-ray diffraction with a treatment of humidification. The class given is physicochemical. The settings on record: room temperature. As to the method: Powder X-ray diffraction was measured under the measurement conditions similar to those in 4. (powder X-ray diffraction) of Test Example 3. Humidification was carried out using a humidity control unit HUM-1A (manufactured by Rigaku Denki K. K.)), to sequentially adjust relative humidity to 3%, 30%, 50%, 60%, 70%, 75%, 80% and 85% at room temperature.

Series [6] deals with c-Kit kinase (Homo sapiens, UniProt P10721). The settings on record: cited from earlier work.
c-Kit kinase, sequence (P10721 26-976): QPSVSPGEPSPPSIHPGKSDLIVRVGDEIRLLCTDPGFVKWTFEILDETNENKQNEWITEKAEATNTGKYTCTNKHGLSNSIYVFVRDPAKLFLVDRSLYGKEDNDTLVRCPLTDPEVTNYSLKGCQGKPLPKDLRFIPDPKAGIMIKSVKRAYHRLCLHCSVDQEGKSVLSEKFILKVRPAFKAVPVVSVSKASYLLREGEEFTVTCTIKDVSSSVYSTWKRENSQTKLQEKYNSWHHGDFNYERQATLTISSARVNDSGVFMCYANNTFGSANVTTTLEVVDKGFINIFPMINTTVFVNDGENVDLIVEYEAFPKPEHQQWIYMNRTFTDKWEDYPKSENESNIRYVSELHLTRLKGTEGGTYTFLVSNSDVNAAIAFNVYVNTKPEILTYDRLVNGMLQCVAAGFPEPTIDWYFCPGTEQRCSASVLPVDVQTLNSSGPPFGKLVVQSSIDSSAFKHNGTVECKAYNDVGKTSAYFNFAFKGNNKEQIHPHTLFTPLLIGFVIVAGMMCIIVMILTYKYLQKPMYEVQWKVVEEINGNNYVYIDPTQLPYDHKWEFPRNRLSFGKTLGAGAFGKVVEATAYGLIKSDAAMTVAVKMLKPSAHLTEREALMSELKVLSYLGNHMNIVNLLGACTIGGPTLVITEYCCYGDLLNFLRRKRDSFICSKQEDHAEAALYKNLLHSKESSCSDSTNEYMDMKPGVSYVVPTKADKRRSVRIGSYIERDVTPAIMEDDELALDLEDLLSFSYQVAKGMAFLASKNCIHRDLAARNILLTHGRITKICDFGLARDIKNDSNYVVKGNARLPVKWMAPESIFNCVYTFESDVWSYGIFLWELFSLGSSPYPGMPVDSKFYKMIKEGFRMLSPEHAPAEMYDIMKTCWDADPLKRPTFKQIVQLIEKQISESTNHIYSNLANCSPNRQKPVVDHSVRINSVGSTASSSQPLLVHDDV
Series [7] concerns angiogenesis. The settings on record: free-form product; Example 368 of WO 02/32872; cited from earlier work.
Series [8] is described as follows: Temperature-controlled powder X-ray diffraction. In kind it is physicochemical. Conditions: 2° C./min. As to the method:
Powder X-ray diffraction was conducted under the measurement conditions similar to those in 4. (powder X-ray diffraction) of Test Examples 3. The temperature was increased according to the following conditions. • Temperature controller: PCT-20 (manufactured by Rigaku Denki K.K.) • Rate for the increase of the temperature: 2° C./min • Measurement temperatures: 30° C., 40° C., 60° C., 80° C., 120° C., 140° C., 180° C., 200° C., 205° C., 210° C. and 215° C. [Results]

[9] abbreviates: beagle dogs n=3, oral, gelatin capsule, 3 mg/kg as free form, fasted.
The mark [10] stands for this setting: 25° C., relative humidity 75% or 93%, 1 week.
The mark [11] stands for this setting: a-2: −20° C. (well closed), 2 weeks.
The mark [12] stands for this setting: b-2: 25° C., light irradiation 1000 lx, shading with aluminum foil, well closed, 2 weeks.
Where [13] appears, read: c-2: 25° C., light irradiation 1000 lx, well closed, 2 weeks.
The mark [14] stands for this setting: d-2: 40° C., relative humidity 75%, 2 weeks.
The mark [15] stands for this setting: e-2: 60° C., 2 weeks (well closed; slightly open for Form I).

For `COc1cc2nccc(Oc3ccc(NC(=O)NC4CC4)c(Cl)c3)c2cc1C(N)=O.CS(=O)(=O)O` [mesylate (Form A), Methanesulfonate of 4-(3-chloro-4-(cyclopropylaminocarbonyl)aminophenoxy)-7-methoxy-6-quinolinecarboxamide], the BA in series [1] was 46.2 ± 5.9%. Besides, the AUC0-24hr in series [1] (setting [9]) came out at 3000 ± 400 ng·h/mL. Also, the “Maximum plasma concentration (Cmax)” value in series [1] (setting [9]) is reported as 397.1 ± 100.1 ng/mL. Further, the “plasma concentration after 24 hours (C24hr)” value in series [1] (setting [9]) was 17.1 ± 2.5 ng/mL. Besides, in series [1] (setting [9]), the “time to reach maximum plasma concentration (Tmax)” value is 1.67 ± 0.3 h. Further, the “change in appearance and crystal transition” value in series [2] (setting [10]) is recorded as “Neither remarkable change in appearance nor crystal transition was observed”. For the same compound, the “change of water content” value in series [2] (setting [10]) is “did not change remarkably”. Further, in series [2] (setting [10]), the hygroscopicity entry is reported as “not observed”. For the same compound, the water content in series [2] (a-1: 25° C., relative humidity 75%, 1 week) is 0.6%; in series [2] (b-1: 25° C., relative humidity 93%, 1 week), 0.7%; in series [2] (hygroscopicity test, initial) it was 0.7%; in series [4] (setting [11]), 0.0%; in series [4] (setting [12]), 0.0%; in series [4] (setting [13]), 0.1%. The water content in series [4] (setting [14]) was found to be 0.2%; in series [4] (setting [15]), 0.2%; in series [4] (solid stability test, initial) it was 0.3%. The compound further displayed a dissolution rate in series [3] of 11.8 μg/min/cm^2. Moreover, the total impurity in series [4] (setting [11]) was 3.90%; in series [4] (setting [12]), 3.95%; in series [4] (setting [13]) it was 4.23%; in series [4] (setting [14]), 3.90%; in series [4] (setting [15]), 3.97%; in series [4] (solid stability test, initial, HPLC relative area), 4.02%. Moreover, the “changes in water content and appearance, crystal transition” value in series [4] (solid stability test, 2 weeks, all storage conditions) was “neither remarkable changes in water content and appearance nor crystal transition was observed”.
For `COc1cc2nccc(Oc3ccc(NC(=O)NC4CC4)c(Cl)c3)c2cc1C(N)=O.CS(=O)(=O)O` [mesylate (Form B), Methanesulfonate of 4-(3-chloro-4-(cyclopropylaminocarbonyl)aminophenoxy)-7-methoxy-6-quinolinecarboxamide], the “crystal transition on humidification” value is “did not exhibit a crystal transition” in series [5] (relative humidity from 3% to 70%); “mixture of crystalline forms of the mesylate (Form B) and (Form C)” in series [5] (relative humidity of 75% and 80%); “complete transition to a crystalline form of the mesylate (Form C)” in series [5] (relative humidity of 85%).
With `COc1cc2nccc(Oc3ccc(NC(=O)NC4CC4)c(Cl)c3)c2cc1C(N)=O` [free form, 4-(3-chloro-4-(cyclopropylaminocarbonyl)aminophenoxy)-7-methoxy-6-quinolinecarboxamide], the “inhibitory action for c-Kit kinase” value in series [6] is listed as “strong inhibitory action”. In series [1], this compound gave a BA of 9.1 ± 0.4%. Besides, the AUC(0-t) in series [1] (dog, plasma, beagle dogs n=3, oral, gelatin capsule, 3 mg/kg as free form, fasted, read-out: AUC0-24hr) was 600 ng·h/mL. In addition, the Cmax in series [1] (dog, plasma, beagle dogs n=3, oral, gelatin capsule, 3 mg/kg as free form, fasted, read-out: Maximum plasma concentration (Cmax)) came out at 53.3 ± 9.9 ng/mL. The concentration at 24 h in series [1] (dog, plasma, beagle dogs n=3, oral, gelatin capsule, 3 mg/kg as free form, fasted, read-out: plasma concentration after 24 hours (C24hr)) came out at 24 ± 9 ng/mL. Besides, the Tmax in series [1] (dog, plasma, beagle dogs n=3, oral, gelatin capsule, 3 mg/kg as free form, fasted, read-out: time to reach maximum plasma concentration (Tmax)) amounted to 1.17 ± 0.4 h. Also, the angiogenesis inhibition entry in series [7] is “excellent angiogenesis inhibition”. The compound further gave a dissolution rate in series [3] of 0.8 μg/min/cm^2.
Take `COc1cc2nccc(Oc3ccc(NC(=O)NC4CC4)c(Cl)c3)c2cc1C(N)=O.CS(=O)(=O)O.C[S+](C)[O-]` [Dimethyl Sulfoxide Solvate of Methanesulfonate of 4-(3-chloro-4-(cyclopropylaminocarbonyl)aminophenoxy)-7-methoxy-6-quinolinecarboxamide]: the results for the “crystal transition on heating” value in series [8] (temperatures from 30° C. to 80° C.) and in series [8] (temperatures of 120° C. or more) were “crystal transition was not observed” and “transition to a crystalline form of the mesylate (Form C) was observed”, respectively.
